In patent US20260001928A1 (CORTERIA PHARMACEUTICALS, priority 2022, published 2026):
*1 amine or outer side, *2 acyl side, *3 side chain or, on linkers, in order; H or OH if unused. Where a SMILES comes first, the peptide text is derived from it. Side-chain parts run from the residue outwards. [ ]: non-standard residue; d: D form. The star is where a group is joined. C18 diacid = O=C(O)CCCCCCCCCCCCCCCCC(=O)*; C16 diacid = O=C(O)CCCCCCCCCCCCCCC(=O)*; γGlu = O=C(O)[C@H](CCC(=O)[*:2])N[*:1]; Pentanoyl = CCCCC(=O)*; AEEA = NCCOCCOCC(=O)O; Aib = CC(C)(N)C(=O)O

Molecular target: T1, CFR1R receptor (Homo sapiens, UniProt P34998)
T1 construct: host or cells: CHO-K1 (clone 2)
T1 sequence (P34998 24-415): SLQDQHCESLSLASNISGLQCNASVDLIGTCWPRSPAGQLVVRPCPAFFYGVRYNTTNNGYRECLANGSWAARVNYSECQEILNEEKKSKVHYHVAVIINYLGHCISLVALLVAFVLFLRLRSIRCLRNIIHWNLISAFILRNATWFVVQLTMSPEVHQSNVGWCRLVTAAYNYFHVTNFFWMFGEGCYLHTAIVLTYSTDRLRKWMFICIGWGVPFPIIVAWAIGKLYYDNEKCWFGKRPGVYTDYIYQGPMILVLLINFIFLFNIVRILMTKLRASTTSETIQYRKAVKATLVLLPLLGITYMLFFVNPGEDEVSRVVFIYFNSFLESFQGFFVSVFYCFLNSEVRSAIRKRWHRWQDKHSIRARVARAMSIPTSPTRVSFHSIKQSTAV
Experiment: Activity at anti-target CFR1R receptor, cAMP assay in CRF1R-overexpression CHO-K1 cells
Type: cell-based
Settings: 100% = Sauvagine at 100 nM
Experimental: Assessment of activity at anti-target CFR1R receptor is done using the same procedure as the one described for the TeloHEAC cell line. The CRF1R-overexpression CHO-K1 cell line clone 2 was purchased from PerkinElmer. Cells were grown in a 10 cm dish at 37° C./5% CO2 in medium (F12 (Hams)/10% FBS/400 μg/ml G418) to near confluence. At that stage, cells were harvested, resuspended to 10 million/mL in culture medium without G418 and with 10% DMSO. 1 mL vial aliquots were slowly frozen to −80° C. in isopropanol and then transferred in liquid nitrogen for storage. These vials were used to run the experiment following the procedure reported in the previous paragraph, except for the compound used in the control well to define the 100% activation (Sauvagine at 100 nM) and the cell density (final cell density: 4000 cells/well)

| SMILES | Emax (% I) | also measured |
| --- | --- | --- |
| CC[C@H](C)[C@H](N)C(=O)N[C@H](C(=O)N[C@@H](CC(C)C)C(=O)N[C@@H](CO)C(=O)N[C@@H](CC(C)C)C(=O)N[C@@H](CC(=O)O)C(=O)N[C@@H](C(=O)N1CCC[C@H]1C(=O)N[C@H](C(=O)N[C@@H](CCCCN)C(=O)N[C@@H](CC(C)C)C(=O)N[C@@H](CCCCNC(=O)COCCOCCNC(=O)COCCOCCNC(=O)CC[C@H](NC(=O)CCCCCCCCCCCCCCC(=O)O)C(=O)O)C(=O)N[C@@H](CCC(N)=O)C(=O)N[C@H](C(=O)N[C@@H](CC(C)C)C(=O)N[C@@H](CC(C)C)C(=O)N[C@@H](CCCCN)C(=O)N[C@@H](CCC(N)=O)C(=O)N[C@@H](CCC(=O)O)C(=O)N[C@@H](CCCNC(=N)N)C(=O)N[C@@H](CCC(N)=O)C(=O)N[C@@H](CCCCN)C(=O)N[C@@H](CCCCN)C(=O)N[C@@H](CCC(N)=O)C(=O)N[C@@H](CCCNC(=N)N)C(=O)N[C@@H](CCC(=O)O)C(=O)N[C@@H](CCC(N)=O)C(=O)N[C@@H](C)C(=O)N[C@@H](CCC(=O)O)C(=O)N[C@@H](CCCCN)C(=O)N[C@@H](CC(N)=O)C(=O)N[C@@H](CCCCN)C(=O)N[C@@H](CCC(N)=O)C(=O)N[C@H](C(=O)N[C@@H](CC(C)C)C(=O)N[C@@H](CCC(=O)O)C(=O)N[C@@H](CCC(N)=O)C(=O)N[C@H](C(N)=O)C(C)C)[C@@H](C)CC)[C@@H](C)CC)[C@@H](C)CC)C(C)C)C(C)C [SEQ ID No. 148, reference compound] (H-IVLSLD[dV]PIKLK([AEEA-AEEA-γGlu-C16 diacid])QILLKQERQKKQREQAEKNKQILEQV-NH2) | – | Emax (% I) (listed as 2): 63 % I |
| CC[C@H](C)[C@H](NC(C)=O)C(=O)N[C@H](C(=O)N[C@@H](CC(C)C)C(=O)N[C@@H](CO)C(=O)N[C@@H](CC(C)C)C(=O)N[C@@H](CC(=O)O)C(=O)N[C@@H](C(=O)N1CCC[C@H]1C(=O)N[C@H](C(=O)N[C@@H](CCCCN)C(=O)N[C@@H](CC(C)C)C(=O)N[C@@H](CCCCNC(=O)CC[C@H](NC(=O)CCCCCCCCCCCCCCC(=O)O)C(=O)O)C(=O)N[C@@H](CCC(N)=O)C(=O)N[C@H](C(=O)N[C@@H](CC(C)C)C(=O)N[C@@H](CC(C)C)C(=O)N[C@@H](CCCCN)C(=O)N[C@@H](CCC(N)=O)C(=O)N[C@@H](CCC(=O)O)C(=O)N[C@@H](CCCNC(=N)N)C(=O)N[C@@H](CCC(N)=O)C(=O)N[C@@H](CCCCN)C(=O)N[C@@H](CCCCN)C(=O)N[C@@H](CCC(N)=O)C(=O)N[C@@H](CCCNC(=N)N)C(=O)N[C@@H](CCC(=O)O)C(=O)N[C@@H](CCC(N)=O)C(=O)N[C@@H](C)C(=O)N[C@@H](CCC(=O)O)C(=O)N[C@@H](CCCCN)C(=O)N[C@@H](CC(N)=O)C(=O)N[C@@H](CCCCN)C(=O)N[C@@H](CCC(N)=O)C(=O)N[C@H](C(=O)N[C@@H](CC(C)C)C(=O)N[C@@H](CCC(=O)O)C(=O)N[C@@H](CCC(N)=O)C(=O)N[C@H](C(N)=O)C(C)C)[C@@H](C)CC)[C@@H](C)CC)[C@@H](C)CC)C(C)C)C(C)C [SEQ ID No. 2, reference compound] (Ac-IVLSLD[dV]PIKLK([γGlu-C16 diacid])QILLKQERQKKQREQAEKNKQILEQV-NH2) | 4 % I | – |
| CC[C@H](C)[C@H](NC(C)=O)C(=O)N[C@H](C(=O)N[C@@H](CC(C)C)C(=O)N[C@@H](CO)C(=O)N[C@@H](CC(C)C)C(=O)N[C@@H](CC(=O)O)C(=O)N[C@@H](C(=O)N1CCC[C@H]1C(=O)N[C@H](C(=O)N[C@@H](CCCCN)C(=O)N[C@@H](CC(C)C)C(=O)N[C@@H](CCCCNC(=O)CC[C@H](NC(=O)CCCCCCCCCCCCCCCCC(=O)O)C(=O)O)C(=O)N[C@@H](CCCCN)C(=O)N[C@H](C(=O)N[C@@H](CC(C)C)C(=O)N[C@@H](CC(C)C)C(=O)N[C@@H](CCC(=O)O)C(=O)N[C@@H](CCC(N)=O)C(=O)N[C@@H](CCC(=O)O)C(=O)N[C@@H](CCCCN)C(=O)N[C@@H](CCC(N)=O)C(=O)N[C@@H](CCCCN)C(=O)N[C@@H](CCCCN)C(=O)N[C@@H](CCC(N)=O)C(=O)N[C@@H](CCCNC(=N)N)C(=O)N[C@@H](CCC(=O)O)C(=O)N[C@@H](CCC(N)=O)C(=O)N[C@@H](C)C(=O)N[C@@H](CCC(=O)O)C(=O)N[C@H](C(=O)N[C@@H](CC(N)=O)C(=O)N[C@@H](CCC(=O)O)C(=O)N[C@@H](CCC(N)=O)C(=O)N[C@H](C(=O)N[C@@H](CC(C)C)C(=O)N[C@@H](C)C(=O)N[C@@H](CCC(N)=O)C(=O)N[C@H](C(N)=O)C(C)C)[C@@H](C)CC)[C@@H](C)O)[C@@H](C)CC)[C@@H](C)CC)C(C)C)C(C)C [SEQ ID No. 130, reference compound] (Ac-IVLSLD[dV]PIKLK([γGlu-C18 diacid])KILLEQEKQKKQREQAETNEQILAQV-NH2) | – | Emax (% I) (listed as 13): 24 % I |

Continued, in another order:

| Emax (% I) | SMILES | also measured |
| --- | --- | --- |
| 6 % I | CCCCC(=O)N[C@H](C(=O)N[C@@H](CC(C)C)C(=O)N[C@@H](CO)C(=O)N[C@@H](CC(C)C)C(=O)N[C@@H](CC(=O)O)C(=O)N[C@@H](C(=O)N1CCC[C@H]1C(=O)N[C@H](C(=O)N[C@@H](CCCCN)C(=O)N[C@@H](CC(C)C)C(=O)N[C@@H](CCCCNC(=O)COCCOCCNC(=O)COCCOCCNC(=O)CC[C@H](NC(=O)CC[C@H](NC(=O)CCCCCCCCCCCCCCCCC(=O)O)C(=O)O)C(=O)O)C(=O)N[C@@H](CCC(N)=O)C(=O)NC(C)(C)C(=O)N[C@@H](CC(C)C)C(=O)N[C@@H](CC(C)C)C(=O)N[C@@H](CCCCN)C(=O)N[C@@H](CCC(N)=O)C(=O)N[C@@H](CCC(=O)O)C(=O)N[C@@H](CCCNC(=N)N)C(=O)N[C@@H](CCC(N)=O)C(=O)N[C@@H](CCCCN)C(=O)N[C@@H](CCCCN)C(=O)N[C@@H](CCC(N)=O)C(=O)N[C@@H](CCCNC(=N)N)C(=O)N[C@@H](CCC(=O)O)C(=O)N[C@@H](CCC(N)=O)C(=O)N[C@@H](C)C(=O)N[C@@H](CCC(=O)O)C(=O)N[C@@H](CCCCN)C(=O)N[C@@H](CC(N)=O)C(=O)N[C@H](C(=O)N[C@@H](CCC(N)=O)C(=O)N[C@H](C(=O)N[C@@H](CC(C)C)C(=O)N[C@@H](CCC(=O)O)C(=O)N[C@@H](CCC(N)=O)C(=O)N[C@H](C(N)=O)C(C)C)[C@@H](C)CC)C(C)C)[C@@H](C)CC)C(C)C)C(C)C [compound 29] (Pentanoyl-VLSLD[dV]PIKLK([AEEA-AEEA-γGlu-γGlu-C18 diacid])Q[Aib]LLKQERQKKQREQAEKNVQILEQV-NH2) | – |
| 1 % I | CC[C@H](C)[C@H](NC(C)=O)C(=O)N[C@H](C(=O)N[C@@H](CC(C)C)C(=O)N[C@@H](CO)C(=O)N[C@@H](CC(C)C)C(=O)N[C@@H](CC(=O)O)C(=O)N[C@H](C(=O)N1CCC[C@H]1C(=O)N[C@H](C(=O)N[C@@H](CCCCN)C(=O)N[C@@H](CC(C)C)C(=O)N[C@@H](CCCCNC(=O)COCCOCCNC(=O)COCCOCCNC(=O)CC[C@H](NC(=O)CC[C@H](NC(=O)CCCCCCCCCCCCCCCCC(=O)O)C(=O)O)C(=O)O)C(=O)N[C@@H](CCC(N)=O)C(=O)NC(C)(C)C(=O)N[C@@H](CC(C)C)C(=O)N[C@@H](CC(C)C)C(=O)N[C@@H](CCCCN)C(=O)N[C@@H](CCC(N)=O)C(=O)N[C@@H](CCC(=O)O)C(=O)N[C@@H](CCCNC(=N)N)C(=O)N[C@@H](CCC(N)=O)C(=O)N[C@@H](CCCCN)C(=O)N[C@@H](CCCCN)C(=O)N[C@@H](CCC(N)=O)C(=O)N[C@@H](CCCNC(=N)N)C(=O)N[C@@H](CCC(=O)O)C(=O)N[C@@H](CCC(N)=O)C(=O)N[C@@H](C)C(=O)N[C@@H](CCC(=O)O)C(=O)N[C@@H](CCCCN)C(=O)N[C@@H](CC(N)=O)C(=O)NC(C)(C)C(=O)N[C@@H](CCC(N)=O)C(=O)N[C@H](C(=O)N[C@@H](CC(C)C)C(=O)N[C@@H](CCC(=O)O)C(=O)N[C@@H](CCC(N)=O)C(=O)N[C@H](C(N)=O)C(C)C)[C@@H](C)CC)[C@@H](C)CC)C(C)C)C(C)C [compound 26] (Ac-IVLSLDVPIKLK([AEEA-AEEA-γGlu-γGlu-C18 diacid])Q[Aib]LLKQERQKKQREQAEKN[Aib]QILEQV-NH2) | – |
| 15 % I | CC[C@H](C)[C@H](NC(C)=O)C(=O)N[C@H](C(=O)N[C@@H](CC(C)C)C(=O)N[C@@H](CO)C(=O)N[C@@H](CC(C)C)C(=O)N[C@@H](CC(=O)O)C(=O)N[C@@H](C(=O)N1CCC[C@H]1C(=O)N[C@H](C(=O)N[C@@H](CCCCN)C(=O)N[C@@H](CC(C)C)C(=O)N[C@@H](CCCCNC(=O)COCCOCCNC(=O)COCCOCCNC(=O)CC[C@H](NC(=O)CC[C@H](NC(=O)CCCCCCCCCCCCCCCCC(=O)O)C(=O)O)C(=O)O)C(=O)N[C@@H](CCC(N)=O)C(=O)N[C@H](C(=O)N[C@@H](CC(C)C)C(=O)N[C@@H](CC(C)C)C(=O)N[C@@H](CCCCN)C(=O)N[C@@H](CCC(N)=O)C(=O)N[C@@H](CCC(=O)O)C(=O)N[C@@H](CCCNC(=N)N)C(=O)N[C@@H](CCC(N)=O)C(=O)N[C@@H](CCCCN)C(=O)N[C@@H](CCCCN)C(=O)N[C@@H](CCC(N)=O)C(=O)N[C@@H](CCCNC(=N)N)C(=O)N[C@@H](CCC(=O)O)C(=O)N[C@@H](CCC(N)=O)C(=O)N[C@@H](C)C(=O)N[C@@H](CCC(=O)O)C(=O)N[C@@H](CCCCN)C(=O)N[C@@H](CC(N)=O)C(=O)NC(C)(C)C(=O)N[C@@H](CCC(N)=O)C(=O)N[C@H](C(=O)N[C@@H](CC(C)C)C(=O)N[C@@H](CCC(=O)O)C(=O)N[C@@H](CCC(N)=O)C(=O)N[C@H](C(N)=O)C(C)C)[C@@H](C)CC)[C@@H](C)CC)[C@@H](C)CC)C(C)C)C(C)C [compound 30] (Ac-IVLSLD[dV]PIKLK([AEEA-AEEA-γGlu-γGlu-C18 diacid])QILLKQERQKKQREQAEKN[Aib]QILEQV-NH2) | – |
